Laboratory results as given in US10266544B2, “Aryl substituted aminomethyl spectinomycin analogs as antibacterial agents” (ST. JUDE CHILDREN'S RESEARCH HOSPITAL, INC., priority 2013, dated 2019).
Converted amounts (≈) assume the structure as drawn. Structures can show the parent of a compound that is named as a salt. Where two headings read alike, the source gives them in different places.

Columns and labels:
Type in all cases: cell-based
[1] = system: Neisseria gonorrhoeae (ATCC 49226); experiment: Disc diffusion assay; settings: ATCC49226, 4 μg per disc, read-out: Zone of inhibition N.g.
[2] = system: Burkholderia cepacia (ATCC 25416); experiment: MIC determination, microbroth dilution; settings: Burkholderia cepacia
Moraxella catarrhalis = experiment: MIC determination (Table 6)
[3] = system: Streptococcus pyogenes (ATCC 700294); experiment: MIC determination, microbroth dilution
[4] = system: Streptococcus pneumoniae (R6); experiment: MIC determination, microbroth dilution; settings: read-out: MIC S. pn.
[5] = system: Legionella pneumophila (ATCC 33153); experiment: microbe, parasite or virus in culture; settings: ATCC33153, 72 h, read-out: Zone of inhibition L.p.
Listeria monocytogenes = experiment: MIC determination (Table 6)
[6] = system: Klebsiella pneumoniae (ATCC 33495); experiment: MIC determination, microbroth dilution; settings: ATCC33495
E. coli K12 ΔtolC = experiment: microbe, parasite or virus in culture; settings: Escherichia coli, read-out: MIC E.c. Δtolc
[7] = system: Haemophilus influenza (ATCC 49247); experiment: microbe, parasite or virus in culture; settings: ATCC49247; Haemophilus influenza; 4 μg per disc; range of at least two experiments; read-out: Zone of inhibition H.i.
[8] = system: Pseudomonas aeruginosa (PA01); experiment: MIC determination, microbroth dilution
Bacillus anthracis = experiment: microbe, parasite or virus in culture; settings: read-out: MIC B.a.
[9] = system: Bacillus subtilis (ATCC 23857); experiment: MIC determination, microbroth dilution
[10] = system: Proteus mirabilis (ATCC 25933); experiment: MIC determination, microbroth dilution; settings: ATCC25933
[11] = system: acinetobacter baumannii (ATCC 19606); experiment: MIC determination, microbroth dilution; settings: ATCC19606
[12] = system: Proteus vulgaris (ATCC 33420); experiment: MIC determination, microbroth dilution; settings: ATCC33420
[13] = system: Escherichia coli (ATCC 700926); experiment: MIC determination, microbroth dilution
[14] = system: Staphylococcus aureus (ATCC 29213); experiment: MIC determination, microbroth dilution; settings: ATCC29213; Staphylococcus aureus (ATCC 29213); read-out: MIC S.a.
[15] = system: MRSA, Staphylococcus aureus (NRS70); experiment: MIC determination, microbroth dilution; settings: read-out: MIC MRSA
[16] = system: Neisseria meningitides (ATCC 13077); experiment: Disc diffusion assay; settings: ATCC13077, 4 μg per disc, read-out: Zone of inhibition N.m.
[17] = system: Bacillus anthracis, Sterne 34F2; experiment: microbe, parasite or virus in culture; settings: STERNE34F2, read-out: MIC B.a.
[18] = system: Stenotrophomonas maltophilia (ATCC 13637); experiment: MIC determination, microbroth dilution
[19] = system: M. tuberculosis clinical isolates; experiment: microbe, parasite or virus in culture; settings: Mycobacterium tuberculosis
[20] = ATCC25416, read-out: MIC B.c., Burkholderia cepacia (ATCC 25416)
[21] = ATCC25416, read-out: MIC B.c., Burkholderia cepacia, Table 6
[22] = ATCC700294, Streptococcus pyogenes (ATCC 700294), read-out: MIC S. py.
[23] = ATCC23857, Bacillus subtilis (ATCC 23857), read-out: MIC B.s.
[24] = ATCC700926, Escherichia coli (ATCC 700926), read-out: MIC E.c.
[25] = ATCC13637, Stenotrophomonas maltophilia (ATCC 13637), read-out: MIC S.m.
[26] = Streptococcus pyogenes, ATCC700294, read-out: MIC S. py.
[27] = Bacillus subtilis, ATCC23857, read-out: MIC B.s.

| SMILES | zone of inhibition at 4 µg/disc [1] [mm] | MIC [2, 20] [µg/mL] | MIC [2, 21] [µg/mL] | MIC (Moraxella catarrhalis) [µg/mL] | zone of inhibition at 4 µg/disc [5] [mm] | MIC (Listeria monocytogenes) [µg/mL] | MIC [6] [µg/mL] | MIC (E. coli K12 ΔtolC) [µg/mL] | zone of inhibition at 4 µg/disc [7] [mm] | MIC [8] [µg/mL] | MIC (Bacillus anthracis) [µg/mL] | MIC [10] [µg/mL] | MIC [11] [µg/mL] | MIC [12] [µg/mL] | MIC [14] [µg/mL] | zone of inhibition at 4 µg/disc [16] [mm] | MIC [17] [µg/mL] | MIC ([19]; H37RV, read-out: MIC H37Rv) [µg/mL] | MIC ([19]; read-out: MIC TN022) [µg/mL] | MIC ([19]; read-out: MIC TN026) [µg/mL] | further results |
| --- | --- | --- | --- | --- | --- | --- | --- | --- | --- | --- | --- | --- | --- | --- | --- | --- | --- | --- | --- | --- | --- |
| CN[C@@H]1[C@H](O)[C@H](NC)[C@H]2O[C@]3(O)[C@H](O[C@@H]2[C@H]1O)O[C@H](C)C[C@@]3(O)CNCCc1ccc(Cl)cc1 [compound 54, 3′-(R)-3′-[(4-chloro)phenethylaminomethyl]dihydrospectinomycin Trihydrobromide] | 11 | > 200 | > 200 | 6.3 | 15 | 25 | > 200 | 12.5 to 25 | 9 | > 200 | 200 | > 200 | > 200 | > 200 | 100 to 200 | 7 | 200 | 25 | 25 | 50 | MIC [3, 22]: 25 µg/mL; MIC ([4]; Streptococcus pneumoniae (R6)): 25 µg/mL; MIC [9, 23]: 25 to 50 µg/mL; MIC [13, 24]: 50 to 100 µg/mL; MIC ([15]; Staphylococcus aureus (NRS70)): > 200 µg/mL; MIC [18, 25]: ≥ 200 µg/mL |
| CN[C@@H]1[C@H](O)[C@H](NC)[C@H]2O[C@]3(O)[C@H](O[C@@H]2[C@H]1O)O[C@H](C)C[C@@]3(O)CNCCc1nccs1 [compound 64, 3′-(R)-3′-[((2-(thiazol-2-yl)ethyl)aminomethyl]dihydrospectinomycintetrahydrobromide] | 8 | > 200 | > 200 | 3.1 | 33 | 12.5 | 100 to 200 | 25 to 50 | 11 | > 200 | 50 | > 200 | > 200 | > 200 | 50 to 100 | 11 | 50 | 1.6 | 1.6 | 1.6 | MIC [3, 22]: 25 µg/mL; MIC ([4]; Streptococcus pneumoniae (R6)): 12.5 µg/mL; MIC [9, 23]: 12.5 to 25 µg/mL; MIC [13, 24]: 50 to 100 µg/mL; MIC ([15]; Staphylococcus aureus (NRS70)): > 200 µg/mL; MIC [18, 25]: 25 to 50 µg/mL |
| CN[C@@H]1[C@H](O)[C@H](NC)[C@H]2O[C@]3(O)[C@H](O[C@@H]2[C@H]1O)O[C@H](C)C[C@@]3(O)CNCCc1ccc[nH]1 [compound 62, 3′-(R)-3′-[((2-(1H-pyrrol-2-yl)ethyl)aminomethyl]dihydrospectinomycintetrahydrobromide] | 0 | > 200 | > 200 | 12.5 | 12 | 25 | 100 to 200 | 12.5 | 0 | > 200 | 25 | 200 | > 200 | 50 to 100 | 25 | 0 | 25 | 50 | 25 | 100 | MIC [3, 22]: 200 µg/mL; MIC ([4]; Streptococcus pneumoniae (R6)): 100 µg/mL; MIC [9, 23]: 6.3 µg/mL; MIC [13, 24]: 50 µg/mL; MIC ([15]; Staphylococcus aureus): 12.5 to 25 µg/mL; MIC [18, 25]: 6.3 µg/mL |
| CN[C@@H]1[C@H](O)[C@H](NC)[C@H]2O[C@]3(O)[C@H](O[C@@H]2[C@H]1O)O[C@H](C)C[C@@]3(O)CNCCc1ccc(C)c(C)c1 [compound 55, 3′-(R)-3′-[(3,4-dimethyl)phenethylaminomethyl]dihydrospectinomycin Trihydrochloride] | 11 | > 200 | > 200 | 3.1 | 15 | 25 | > 200 | 12.5 to 25 | 9 | > 200 | 100 | > 200 | > 200 | > 200 | 100 | 8 | 100 | 25 | 50 | 50 | MIC [3, 26]: 12.5 to 25 µg/mL; MIC ([4]; Streptococcus pneumoniae (R6)): 12.5 µg/mL; MIC [9, 23]: 50 µg/mL; MIC [13, 24]: 100 to 200 µg/mL; MIC ([15]; Staphylococcus aureus (NRS70)): > 200 µg/mL; MIC [18, 25]: 50 µg/mL |
| CN[C@@H]1[C@H](O)[C@H](NC)[C@H]2O[C@]3(O)[C@H](O[C@@H]2[C@H]1O)O[C@H](C)C[C@@]3(O)CNCCC1CCOCC1 [compound 52, 3′-(R)-3′-[(2-(tetrahydro-2H-pyran-4-yl)ethyl)aminomethyl]dihydrospectinomycin Trihydrochloride] | 7 | > 200 | > 200 | 3.1 | 32 | 12.5 | 100 | 25 to 50 | 10 | > 200 | 50 to 100 | 200 | > 200 | > 200 | 200 | 12 | 50 to 100 | 3.1 | 6.3 | 3.1 | MIC [3, 22]: 100 µg/mL; MIC ([4]; Streptococcus pneumoniae (R6)): 25 to 50 µg/mL; MIC [9, 23]: 25 µg/mL; MIC [13, 24]: 50 to 100 µg/mL; MIC ([15]; Staphylococcus aureus (NRS70)): > 200 µg/mL; MIC [18, 25]: 12.5 to 25 µg/mL |
| CN[C@@H]1[C@H](O)[C@H](NC)[C@H]2O[C@]3(O)[C@H](O[C@@H]2[C@H]1O)O[C@H](C)C[C@@]3(O)CNCCc1ccc(OC(F)(F)F)cc1 [compound 57, 3′-(R)-3′-[(4-trifluoromethoxy)phenethylaminomethyl]dihydrospectinomycin Trihydrochloride] | 14 | ≥ 200 | ≥ 200 | 0.8 | 22 | 6.3 | > 200 | 1.3 to 3.1 | 12 | > 200 | 25 | 200 | ≥ 200 | 200 | 25 | 15 | 25 | 12.5 | 6.3 | 25 | MIC [3, 22]: 3.1 to 6.3 µg/mL; MIC ([4]; Streptococcus pneumoniae (R6)): 3.1 µg/mL; MIC [9, 27]: 12.5 µg/mL; MIC ([13]; Escherichia coli, ATCC700926, read-out: MIC E.c.): 25 µg/mL; MIC ([15]; Staphylococcus aureus (NRS70)): 50 to 100 µg/mL; MIC [18, 25]: 50 to 100 µg/mL |
| CN[C@@H]1[C@H](O)[C@H](NC)[C@H]2O[C@]3(O)[C@H](O[C@@H]2[C@H]1O)O[C@H](C)C[C@@]3(O)CNCC(C)c1ccccc1 (some centres unmarked) [compound 65] | 12 | ≥ 200 | ≥ 200 | 3.1 (≈ 6.44 µM) | 22 | 12.5 (≈ 26 µM) | > 200 | 6.3 to 12.5 (≈ 13.1 to 26 µM) | 10 | > 200 | 12.5 (≈ 26 µM) | > 200 | > 200 | > 200 | 25 (≈ 51.9 µM) | 13 | 12.5 (≈ 26 µM) | 50 (≈ 104 µM) | 100 (≈ 208 µM) | 100 (≈ 208 µM) | MIC [3, 26]: 12.5 µg/mL (≈ 26 µM); MIC ([4]; Streptococcus pneumoniae): 12.5 µg/mL (≈ 26 µM); MIC [9, 27]: 12.5 µg/mL (≈ 26 µM); MIC [13, 24]: 50 µg/mL (≈ 104 µM); MIC ([15]; Staphylococcus aureus): 12.5 to 25 µg/mL (≈ 26 to 51.9 µM); MIC ([18]; Stenotrophomonas maltophilia, ATCC13637, read-out: MIC S.m.): 12.5 µg/mL (≈ 26 µM) |
